The target of experiment [1] is T1, TLR8 (Homo sapiens, UniProt Q9NR97).
T1 construct: human HEK-Blue cells co-expressing a TLR7 or TLR8 gene
T1 sequence (Q9NR97 27-1041): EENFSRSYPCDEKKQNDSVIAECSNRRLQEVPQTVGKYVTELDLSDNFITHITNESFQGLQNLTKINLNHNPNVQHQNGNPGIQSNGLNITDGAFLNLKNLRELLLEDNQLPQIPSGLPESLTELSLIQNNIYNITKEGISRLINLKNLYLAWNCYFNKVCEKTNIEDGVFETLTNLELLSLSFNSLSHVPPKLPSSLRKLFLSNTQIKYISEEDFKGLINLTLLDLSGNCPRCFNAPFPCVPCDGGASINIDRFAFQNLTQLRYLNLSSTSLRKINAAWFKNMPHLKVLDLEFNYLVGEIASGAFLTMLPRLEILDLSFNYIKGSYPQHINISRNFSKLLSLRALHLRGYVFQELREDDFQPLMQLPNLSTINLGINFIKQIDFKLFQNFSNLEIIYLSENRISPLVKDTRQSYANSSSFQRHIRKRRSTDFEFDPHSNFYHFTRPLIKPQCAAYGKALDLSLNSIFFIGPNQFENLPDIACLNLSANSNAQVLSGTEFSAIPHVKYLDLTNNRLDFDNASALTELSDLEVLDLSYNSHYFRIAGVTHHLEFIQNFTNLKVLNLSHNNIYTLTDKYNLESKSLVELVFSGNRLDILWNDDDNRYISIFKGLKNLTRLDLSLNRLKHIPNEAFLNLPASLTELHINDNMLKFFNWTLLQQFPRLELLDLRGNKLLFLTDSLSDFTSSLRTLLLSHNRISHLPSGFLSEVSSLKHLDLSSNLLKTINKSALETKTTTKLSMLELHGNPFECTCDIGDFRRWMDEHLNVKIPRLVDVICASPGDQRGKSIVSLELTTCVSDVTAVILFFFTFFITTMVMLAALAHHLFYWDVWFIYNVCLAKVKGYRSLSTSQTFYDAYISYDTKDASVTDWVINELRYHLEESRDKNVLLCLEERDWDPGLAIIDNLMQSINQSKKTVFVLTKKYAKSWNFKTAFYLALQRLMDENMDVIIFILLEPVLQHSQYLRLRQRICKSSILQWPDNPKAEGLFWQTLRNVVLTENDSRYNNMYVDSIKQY
Nature of the experiment: In vitro human TLR8 binding reporter assay (HEK-Blue, NF-kB/AP1-inducible SEAP). The settings on record: activity range, read-out: TLR8 Agonist EC50. Format: cell-based. A digest of the protocol:
(§1)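 Cells are seeded and grown for 24 h. Compounds or DMSO are then added and incubated 18 h at 37 °C. Quanti-Blue is added, and SEAP is read after thirty minutes. EC50 values are normalized, with RLU from 50 μM reference standard setting 100% Ymax.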

In experiment [2] the test system is THP-1 cells. Briefly: Measurement of IL-1β production, hTRF protocol (second alternative procedure), THP-1 cells. Format: cell-based, human. Conditions: Homo sapiens, THP-1, IL-1β production, human cells; read-out: NLRP3 hILIB EC50. A digest of the protocol:
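Compounds, dilution series starting at a final 10 μM, were incubated 2 hours at 37° C with PMA-differentiated THP-1 cells (50 ng/ml overnight; 50,000 cells/well, 2% FBS RPMI). Released IL-1β quantified in supernatant by hTRF kit with 1:40 antibody dilution, 4° C overnight, 665/615 nm ratio.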

The target in experiment [3] is T2, TLR7 (Homo sapiens, UniProt Q9NYK1).
T2 construct: human HEK-Blue cells co-expressing a TLR7 or TLR8 gene
T2 sequence (Q9NYK1 27-1049): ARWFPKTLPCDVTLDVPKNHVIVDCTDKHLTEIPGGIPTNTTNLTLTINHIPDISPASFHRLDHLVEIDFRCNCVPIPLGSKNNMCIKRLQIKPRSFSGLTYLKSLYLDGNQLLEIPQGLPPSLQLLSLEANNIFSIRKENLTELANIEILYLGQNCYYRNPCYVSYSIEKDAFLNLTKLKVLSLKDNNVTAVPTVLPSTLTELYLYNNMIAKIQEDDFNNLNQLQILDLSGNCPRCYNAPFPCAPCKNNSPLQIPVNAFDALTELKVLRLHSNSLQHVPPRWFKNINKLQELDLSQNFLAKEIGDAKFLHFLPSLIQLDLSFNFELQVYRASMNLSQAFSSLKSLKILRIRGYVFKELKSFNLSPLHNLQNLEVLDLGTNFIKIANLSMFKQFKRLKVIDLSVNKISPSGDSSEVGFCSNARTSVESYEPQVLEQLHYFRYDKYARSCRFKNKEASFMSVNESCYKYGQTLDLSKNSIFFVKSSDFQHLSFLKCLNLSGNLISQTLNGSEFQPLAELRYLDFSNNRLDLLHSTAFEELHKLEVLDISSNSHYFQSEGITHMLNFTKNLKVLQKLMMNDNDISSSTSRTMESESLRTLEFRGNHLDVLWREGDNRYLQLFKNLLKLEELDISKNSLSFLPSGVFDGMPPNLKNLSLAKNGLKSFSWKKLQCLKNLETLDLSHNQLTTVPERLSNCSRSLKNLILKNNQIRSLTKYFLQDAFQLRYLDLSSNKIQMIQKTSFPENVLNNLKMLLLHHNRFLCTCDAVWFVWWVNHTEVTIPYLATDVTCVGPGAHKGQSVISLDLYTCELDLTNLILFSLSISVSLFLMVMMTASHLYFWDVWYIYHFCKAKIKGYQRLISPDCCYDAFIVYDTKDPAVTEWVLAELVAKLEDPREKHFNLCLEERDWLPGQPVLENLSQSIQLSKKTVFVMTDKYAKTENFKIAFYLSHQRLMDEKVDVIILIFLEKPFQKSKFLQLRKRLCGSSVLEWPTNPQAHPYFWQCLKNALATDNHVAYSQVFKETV
Nature of the experiment: In vitro human TLR7 binding reporter assay (HEK-Blue, NF-kB/AP1-inducible SEAP). Format: cell-based. The settings on record: activity range, read-out: TLR7 Agonist EC50. In outline:
as §1

For `CNC(=O)Cn1cc2c(N)nc3cc(-n4cccn4)ccc3c2n1` [Example 554], the EC50 was more than 100 µM in experiment [1], 0.46 µM in experiment [2] and more than 100 µM in experiment [3].
Turning to `NC(=O)Cn1cc2c(N)nc3cc(-n4cccn4)ccc3c2n1` [Example 555], the half-maximal effective concentration (EC50) in experiment [1] is more than 100 µM; in experiment [2], 0.33 µM; in experiment [3], more than 100 µM.
For `CNC(=O)CCn1cc2c(N)nc3cc(-n4cccn4)ccc3c2n1` [Example 556], the EC50 in experiment [1] is more than 100 µM; in experiment [2], 1.82 µM; in experiment [3] it was more than 100 µM.
Turning to `N#CCCn1cc2c(N)nc3cc(-n4cccn4)ccc3c2n1` [Example 557], the EC50 was more than 100 µM in experiment [1], 0.42 µM in experiment [2] and more than 100 µM in experiment [3].
As to `NC(=O)CCn1cc2c(N)nc3cc(-n4cccn4)ccc3c2n1` [Example 558], the EC50 is more than 100 µM in experiment [1], 0.63 µM in experiment [2] and more than 100 µM in experiment [3].
For `N#CCCCCn1cc2c(N)nc3cc(-n4cccn4)ccc3c2n1` [Example 559], the results for the EC50 in experiment [1], in experiment [2] and in experiment [3] were more than 100 µM, 0.6 µM and more than 100 µM, respectively.
As to `CNC(=O)C(C)n1cc2c(N)nc3cc(-c4ccn[nH]4)ccc3c2n1` (stereo not drawn) [Example 560], the EC50 was more than 100 µM in experiment [1], 0.36 µM in experiment [2] and more than 100 µM in experiment [3].
`CC(C(=O)N(C)C)n1cc2c(N)nc3cc(-c4ccn[nH]4)ccc3c2n1` (stereo not drawn) [Example 561]: the EC50 is more than 100 µM in experiment [1], 0.95 µM in experiment [2] and more than 100 µM in experiment [3].
In the case of `CC(C(=O)NC1CCC1)n1cc2c(N)nc3cc(-c4ccn[nH]4)ccc3c2n1` (stereo not drawn) [Example 562], the concentration for a half-maximal effect (EC50) is more than 100 µM in experiment [1], 0.7 µM in experiment [2] and more than 100 µM in experiment [3].
On to `CC(C(=O)NCc1ccccn1)n1cc2c(N)nc3cc(-c4ccn[nH]4)ccc3c2n1` (stereo not drawn) [Example 563], for which the EC50 in experiment [1] is more than 100 µM; in experiment [2] it was 9.21 µM; in experiment [3], more than 100 µM.
With `COC1CCN(C(=O)C(C)n2cc3c(N)nc4cc(-c5ccn[nH]5)ccc4c3n2)CC1` (stereo not drawn) [Example 564], the EC50 in experiment [1] was more than 100 µM; in experiment [2], 15.5 µM; in experiment [3] it was more than 100 µM.
For `CC(C(=O)NCc1cccnc1)n1cc2c(N)nc3cc(-c4ccn[nH]4)ccc3c2n1` (stereo not drawn) [Example 565], the EC50 in experiment [1] is more than 100 µM; in experiment [2], 4.18 µM; in experiment [3], more than 100 µM.
Regarding `CC(C(=O)NCC1CCOCC1)n1cc2c(N)nc3cc(-c4ccn[nH]4)ccc3c2n1` (stereo not drawn) [Example 566], the values for the EC50 in experiment [1], in experiment [2] and in experiment [3] were more than 100 µM, 27.6 µM and more than 100 µM, respectively.
For the compound `CC(C(=O)NCC(F)F)n1cc2c(N)nc3cc(-c4ccn[nH]4)ccc3c2n1` (stereo not drawn) [Example 567], the EC50 is more than 100 µM in experiment [1], 0.97 µM in experiment [2] and more than 100 µM in experiment [3].
With `CC(C(=O)NCCO)n1cc2c(N)nc3cc(-c4ccn[nH]4)ccc3c2n1` (stereo not drawn) [Example 568], the EC50 in experiment [1] is more than 100 µM; in experiment [2], 2.1 µM; in experiment [3], more than 100 µM.
For `CC(C)NC(=O)C(C)n1cc2c(N)nc3cc(-c4ccn[nH]4)ccc3c2n1` (stereo not drawn) [Example 569], the EC50 in experiment [1] is more than 100 µM; in experiment [2], 0.94 µM; in experiment [3], more than 100 µM.
Turning to `CC(C(=O)N1CCOCC1)n1cc2c(N)nc3cc(-c4ccn[nH]4)ccc3c2n1` (stereo not drawn) [Example 570], the results for the EC50 in experiment [1], in experiment [2] and in experiment [3] were more than 100 µM, 5.13 µM and more than 100 µM, respectively.
On to `CC(C(=O)NCc1ccccc1)n1cc2c(N)nc3cc(-c4ccn[nH]4)ccc3c2n1` (stereo not drawn) [Example 571], for which the EC50 was more than 100 µM in experiment [1], 2.02 µM in experiment [2] and more than 100 µM in experiment [3].
`CC(C(=O)NCCCO)n1cc2c(N)nc3cc(-c4ccn[nH]4)ccc3c2n1` (stereo not drawn) [Example 572]: the EC50 in experiment [1] is more than 100 µM; in experiment [2], 4.41 µM; in experiment [3], more than 100 µM.
As for `CCN(CC)CCNC(=O)C(C)n1cc2c(N)nc3cc(-c4ccn[nH]4)ccc3c2n1` (stereo not drawn) [Example 573], the EC50 in experiment [1] was more than 100 µM; in experiment [2] it was 6.59 µM; in experiment [3], more than 100 µM.
Turning to `CC(C(=O)NC(C)(C)CO)n1cc2c(N)nc3cc(-c4ccn[nH]4)ccc3c2n1` (stereo not drawn) [Example 574], the EC50 in experiment [1] is more than 100 µM; in experiment [2], 14 µM; in experiment [3] it was more than 100 µM.
Take `CC(C(=O)N1CCS(=O)(=O)CC1)n1cc2c(N)nc3cc(-c4ccn[nH]4)ccc3c2n1` (stereo not drawn) [Example 575]: the EC50 in experiment [1] is more than 100 µM; in experiment [2], 19.7 µM; in experiment [3] it was more than 100 µM.
Consider `CC(C(=O)N1CCC1)n1cc2c(N)nc3cc(-c4ccn[nH]4)ccc3c2n1` (stereo not drawn) [Example 576], for which the EC50 is more than 100 µM in experiment [1], 1.61 µM in experiment [2] and more than 100 µM in experiment [3].
Consider `CC(C(=O)N1CC(F)(F)C1)n1cc2c(N)nc3cc(-c4ccn[nH]4)ccc3c2n1` (stereo not drawn) [Example 577], for which the EC50 in experiment [1] is more than 100 µM; in experiment [2], 2.32 µM; in experiment [3] it was more than 100 µM.
Take `CC(C(=O)N1CC(C)(O)C1)n1cc2c(N)nc3cc(-c4ccn[nH]4)ccc3c2n1` (stereo not drawn) [Example 578]: the figures for the 50% effective concentration (EC50) in experiment [1], in experiment [2] and in experiment [3] were more than 100 µM, 18.6 µM and more than 100 µM, respectively.
As to `CC(C(=O)N1CC(O)C1)n1cc2c(N)nc3cc(-c4ccn[nH]4)ccc3c2n1` (stereo not drawn) [Example 579], the EC50 in experiment [1] is more than 100 µM; in experiment [2], 4.47 µM; in experiment [3], more than 100 µM.
As for `CC(C(=O)N1CC[C@H](C#N)C1)n1cc2c(N)nc3cc(-c4ccn[nH]4)ccc3c2n1` (stereo partly drawn) [Example 580], the figures for the EC50 in experiment [1], in experiment [2] and in experiment [3] were more than 100 µM, 20.1 µM and more than 100 µM, respectively.
For `COCCNC(=O)C(C)n1cc2c(N)nc3cc(-c4ccn[nH]4)ccc3c2n1` (stereo not drawn) [Example 581], the 50% effective concentration (EC50) in experiment [1] was more than 100 µM; in experiment [2] it was 3.17 µM; in experiment [3] it was more than 100 µM.
For the compound `COCCN(C)C(=O)C(C)n1cc2c(N)nc3cc(-c4ccn[nH]4)ccc3c2n1` (stereo not drawn) [Example 582], the figures for the EC50 in experiment [1], in experiment [2] and in experiment [3] were more than 100 µM, 3.3 µM and more than 100 µM, respectively.
`CCN(CC)C(=O)C(C)n1cc2c(N)nc3cc(-c4ccn[nH]4)ccc3c2n1` (stereo not drawn) [Example 583]: the EC50 is more than 100 µM in experiment [1], 1.82 µM in experiment [2] and more than 100 µM in experiment [3].

The values are drawn from US12037344B2, “NLRP3 modulators” (INNATE TUMOR IMMUNITY, INC., priority 2018, dated 2024).
